Assay results from patent publication EP4806898A1, “HETEROARYL DERIVATIVE COMPOUND AND USE THEREOF” (Voronoi Inc., priority 2023, dated 2025).

How the values were obtained:
[1] = target: T1, recombinant USP1 protein (Homo sapiens, UniProt O94782, DEL125-138/DEL229-408/DEL608-737); test: Binding affinity to recombinant USP1 protein by differential scanning fluorimetry; conditions: compound 100 µM; 0.03 mg/mL USP1 (Δ1-66, Δ125-138, Δ229-408, Δ608-737); Tm with compound minus Tm with DMSO; read-out: ΔTm (°C)
T1 sequence (O94782 with tags, fused parts or gaps DEL125-138/DEL229-408/DEL608-737): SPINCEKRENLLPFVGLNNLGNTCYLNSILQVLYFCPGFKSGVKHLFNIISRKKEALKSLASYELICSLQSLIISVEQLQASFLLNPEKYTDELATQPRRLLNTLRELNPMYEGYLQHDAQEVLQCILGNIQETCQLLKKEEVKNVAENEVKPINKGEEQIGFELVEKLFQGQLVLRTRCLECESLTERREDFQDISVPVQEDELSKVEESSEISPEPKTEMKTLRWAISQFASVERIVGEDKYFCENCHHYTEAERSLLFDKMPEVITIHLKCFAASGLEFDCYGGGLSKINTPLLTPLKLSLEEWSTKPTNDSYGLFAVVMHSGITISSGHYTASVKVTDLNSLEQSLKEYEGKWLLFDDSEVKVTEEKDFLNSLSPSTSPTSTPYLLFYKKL
How it was run: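 USP1 (Δ1-66, Δ125-138, Δ229-408, Δ608-737) at 0.03 mg/mL with dye in 50 mM Tris-HCl pH 8.0, 150 mM NaCl, 2% glycerol, 1 mM DTT; compounds at 100 µM final. Tm read on real-time PCR instrument; ΔTm = Tm with compound minus Tm with DMSO.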

[2] = test system: UWB1.289 cells; test: Cell proliferation inhibitory activity in BRCA1/2-mutant or HRD-positive cells (Cell Titer-Glo); format: cell-based; conditions: UWB1289; UWB1.289 cells, 144 hours after compound treatment, Cell Titer-Glo, 1.5 nM to 10 µM; read-out: GI50 UWB1.289 BRCA1 mut
How it was run: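 UWB1.289 cells (1,000/well) in 50% MEBM/50% RPMI1640 exposed to […], final 1.5 nM to 10 µM, for 144 h at 37 °C. Viable cells measured by CellTiter-Glo luminescence; GI50 calculated.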

CNC(=O)c1cc2cnc(-c3c(OC)ncnc3C3CC3)nc2n1Cc1ccc(-c2nc(C(F)(F)F)cn2C)cc1 [Example 43, 2-(4-cyclopropyl-6-methoxypyrimidin-5-yl)-N-methyl-7-(4-(1-methyl-4-(trifluoromethyl)-1H-imidazol-2-yl)benzyl)-7H-pyrrolo[2,3-d]pyrimidine-6-carboxamide] was tested, and the ΔTm at 100 µM [1] was > 5 °C and the GI50 [2] was < 100 nM.
In the case of COC(=O)CNC(=O)c1cc2cnc(-c3c(OC)ncnc3C3CC3)nc2n1Cc1ccc(-c2nc(C(F)(F)F)cn2C(C)C)cc1 [Example 45, methyl (2-(4-cyclopropyl-6-methoxypyrimid in-5-yl)-7-(4-(1-isopropyl-4-(trifluoromethyl)-1H-imidazol-2-yl)benzyl)-7H-pyrrolo[2,3-d]pyrimidine-6-carbonyl)glyci nate], the ΔTm at 100 µM [1] is reported as > 5 °C and the GI50 [2] is reported as < 100 nM.
With COc1ncnc(C2CC2)c1-c1ncc2cc(C(=O)NCCN3CCCC3)n(Cc3ccc(-c4nc(C(F)(F)F)cn4C(C)C)cc3)c2n1 [Example 47, 2-(4-cyclopropyl-6-methoxypyrimidin-5-yl)-7-(4-(1-isopropyl-4-(trifluoromethyl)-1H-imidazol-2-yl)benzyl)-N-(2-(pyrrolidin-1-yl)ethyl)-7H-pyrrolo[2,3-d]pyrimidine-6-carboxamide] the ΔTm at 100 µM [1] was > 5 °C and the GI50 [2] was < 100 nM.
In the case of COc1ncnc(C2CC2)c1-c1ncc2cc(C(=O)NC(C)C)n(Cc3ccc(-c4nc(C(F)(F)F)cn4C(C)C)cc3)c2n1 [Example 48, 2-(4-cyclopropyl-6-methoxypyrimidin-5-yl)-N-isopropyl-7-(4-(1-isopropyl-4-(trifluoromethyl)-1H-imidazol-2-yl)benzyl)-7H-pyrrolo[2,3-d]pyrimidine-6-carboxamide], the ΔTm at 100 µM [1] is reported as > 5 °C and the GI50 [2] is reported as < 100 nM.
COc1ncnc(C2CC2)c1-c1ncc2cc(C(=O)NCc3ccccc3)n(Cc3ccc(-c4nc(C(F)(F)F)cn4C(C)C)cc3)c2n1 [Example 49, N-benzyl-2-(4-cyclopropyl-6-methoxypyrimidin-5-yl)-7-(4-(1-isopropyl-4-(trifluoromethyl)-1H-imidazol-2-yl)benzyl)-7H-pyrrolo[2,3-d]pyrimidine-6-carboxamide] was tested, and the ΔTm at 100 µM [1] was > 5 °C and the GI50 [2] was 100 to 500 nM.
For COc1ncnc(C2CC2)c1-c1ncc2cc(C(=O)N3CC[C@H](N(C)C)C3)n(Cc3ccc(-c4nc(C(F)(F)F)cn4C(C)C)cc3)c2n1 [Example 50, (S)-(2-(4-cyclopropyl-6-methoxypyrimidin-5-yl)-7-(4-(1-isopropyl-4-(trifluoromethyl)-1H-imidazol-2-yl)benzyl)-7H-pyrrolo[2,3-d]pyrimidin-6-yl) (3-(dimethylamino)pyrrolidin-1-yl)methanone], the ΔTm at 100 µM [1] was > 5 °C and the GI50 [2] was 100 to 500 nM.
COc1ncnc(C2CC2)c1-c1ncc2cc(C(=O)N3CCCC3)n(Cc3ccc(-c4nc(C(F)(F)F)cn4C(C)C)cc3)c2n1 [Example 51, (2-(4-cyclopropyl-6-methoxypyrimid in-5-yl)-7-(4-(1-isopropyl-4-(trifluoromethyl)-1H-imidazol-2-yl)benzyl)-7H-pyrrolo[2,3-d]pyrimidin-6-yl)(pyrrolidin-1-yl)methanone] was tested, and the ΔTm at 100 µM [1] was > 5 °C and the GI50 [2] was < 100 nM.
With CCN(CC)CCNC(=O)c1cc2cnc(-c3c(OC)ncnc3C3CC3)nc2n1Cc1ccc(-c2nc(C(F)(F)F)cn2C(C)C)cc1 [Example 52, 2-(4-cyclopropyl-6-methoxypyrimidin-5-yl)-N-(2-(diethylamino)ethyl)-7-(4-(1-isopropyl-4-(trifluoromethyl)-1H-imidazol-2-yl)benzyl)-7H-pyrrolo[2,3-d]pyrimidine-6-carboxamide] the ΔTm at 100 µM [1] was > 5 °C and the GI50 [2] was 100 to 500 nM.
COc1ncnc(C2CC2)c1-c1ncc2cc(C(=O)N3CC(N(C)C)C3)n(Cc3ccc(-c4nc(C(F)(F)F)cn4C(C)C)cc3)c2n1 [Example 53, (2-(4-cyclopropyl-6-methoxypyrimid in-5-yl)-7-(4-(1-isopropyl-4-(trifluoromethyl)-1H-imidazol-2-yl)benzyl)-7H-pyrrolo[2,3-d]pyrimidin-6-yl) (3-(dimethylamino)azetidin-1-yl)methanone] was tested, and the ΔTm at 100 µM [1] was > 5 °C and the GI50 [2] was < 100 nM.
COc1ncnc(C2CC2)c1-c1ncc2cc(C(=O)N3CCN4CCCC4C3)n(Cc3ccc(-c4nc(C(F)(F)F)cn4C(C)C)cc3)c2n1 (centres unmarked) [Example 55, (2-(4-cyclopropyl-6-methoxypyrimid in-5-yl)-7-(4-(1-isopropyl-4-(trifluoromethyl)-1H-imidazol-2-yl)benzyl)-7H-pyrrolo[2,3-d]pyrimidin-6-yl) (hexahydrop yrrolo[1,2-a]pyrazin-2 (1H) - yl)methanone] was tested, and the ΔTm at 100 µM [1] was > 5 °C and the GI50 [2] was 100 to 500 nM.
In the case of COc1ncnc(C2CC2)c1-c1ncc2cc(C(=O)N3CCOC4(CCC4)C3)n(Cc3ccc(-c4nc(C(F)(F)F)cn4C(C)C)cc3)c2n1 [Example 56, (2-(4-cyclopropyl-6-methoxypyrimid in-5-yl)-7-(4-(1-isopropyl-4-(trifluoromethyl)-1H-imidazol-2-yl)benzyl)-7H-pyrrolo[2,3-d]pyrimidin-6-yl) (5-oxa-8-azaspiro[3.5]nonan-8-yl)methanone], the ΔTm at 100 µM [1] is reported as > 5 °C and the GI50 [2] is reported as 100 to 500 nM.
CCN1CCN(C(=O)c2cc3cnc(-c4c(OC)ncnc4C4CC4)nc3n2Cc2ccc(-c3nc(C(F)(F)F)cn3C(C)C)cc2)CC1 [Example 57, (2-(4-cyclopropyl-6-methoxypyrimid in-5-yl)-7-(4-(1-isopropyl-4-(trifluoromethyl)-1H-imidazol-2-yl)benzyl)-7H-pyrrolo[2,3-d]pyrimidin-6-yl) (4-ethylpiperazin-1-yl)methanone] was tested, and the ΔTm at 100 µM [1] was > 5 °C and the GI50 [2] was < 100 nM.
For COc1ncnc(C2CC2)c1-c1ncc2cc(C(=O)NC[C@H]3CCCN3)n(Cc3ccc(-c4nc(C(F)(F)F)cn4C(C)C)cc3)c2n1 [Example 58, (R) -2-(4-cyclopropyl-6-methoxypyrimidin-5-yl)-7-(4-(1-isopropyl-4-(trifluoromethyl)-1H-imidazol-2-yl)benzyl)-N-(pyrrolidin-2-ylmethyl)-7H-pyrrolo[2,3-d]pyrimidine-6-carboxamide], the ΔTm at 100 µM [1] was > 5 °C and the GI50 [2] was < 100 nM.
With C#CCNC(=O)c1cc2cnc(-c3c(OC)ncnc3C3CC3)nc2n1Cc1ccc(-c2nc(C(F)(F)F)cn2C(C)C)cc1 [Example 60, 2-(4-cyclopropyl-6-methoxypyrimidin-5-yl)-7-(4-(1-isopropyl-4-(trifluoromethyl)-1H-imidazol-2-yl)benzyl)-N-(prop-2-yn-1-yl)-7H-pyrrolo[2,3-d]pyrimidine-6-carboxamide] the ΔTm at 100 µM [1] was > 5 °C and the GI50 [2] was < 100 nM.
In the case of COc1ncnc(C2CC2)c1-c1ncc2cc(C(=O)NCC(C)(C)O)n(Cc3ccc(-c4nc(C(F)(F)F)cn4C(C)C)cc3)c2n1 [Example 61, 2-(4-cyclopropyl-6-methoxypyrimidin-5-yl)-N-(2-hydroxy-2-methylpropyl)-7-(4-(1-isopropyl-4-(trifluoromethyl)-1H-imidazol-2-yl)benzyl)-7H-pyrrolo[2,3-d]pyrimidine-6-carboxamide], the ΔTm at 100 µM [1] is reported as > 5 °C and the GI50 [2] is reported as < 100 nM.
In the case of C=CCCNC(=O)c1cc2cnc(-c3c(OC)ncnc3C3CC3)nc2n1Cc1ccc(-c2nc(C(F)(F)F)cn2C(C)C)cc1 [Example 64, N-(but-3-en-1-yl)-2-(4-cyclopropyl-6-methoxypyrimidin-5-yl)-7-(4-(1-isopropyl-4-(trifluoromethyl)-1H-imidazol-2-yl)benzyl)-7H-pyrrolo[2,3-d]pyrimidine-6-carboxamide], the ΔTm at 100 µM [1] is reported as > 5 °C and the GI50 [2] is reported as 100 to 500 nM.
With COc1ncnc(C2CC2)c1-c1ncc2cc(C(=O)N3C[C@H]4C[C@@H]3CO4)n(Cc3ccc(-c4nc(C(F)(F)F)cn4C(C)C)cc3)c2n1 [Example 65, ((1R,4R)-2-oxa-5-azabicyclo[2.2 .1]heptan-5-yl)(2-(4-cyclopropyl-6-methoxypyrimidin-5-yl)-7-(4-(1-isopropyl-4-(trifluoromethyl)-1H-imidazol-2-yl)benzyl)-7H-pyrrolo[2,3-d]pyrimidin-6-yl)methanone] the ΔTm at 100 µM [1] was > 5 °C and the GI50 [2] was 100 to 500 nM.
For COc1ncnc(C2CC2)c1-c1ncc2cc(C(=O)NC[C@@H]3CCO3)n(Cc3ccc(-c4nc(C(F)(F)F)cn4C(C)C)cc3)c2n1 [Example 66, (S)-2-(4-cyclopropyl-6-methoxypyrimidin-5-yl)-7-(4-(1-isopropyl-4-(trifluoromethyl)-1H-imidazol-2-yl)benzyl)-N-(oxetan-2-ylmethyl)-7H-pyrrolo[2,3-d]pyrimidine-6-carboxamide], the ΔTm at 100 µM [1] was > 5 °C and the GI50 [2] was < 100 nM.
With COc1ncnc(C2CC2)c1-c1ncc2cc(C(=O)N3CCCC(O)C3)n(Cc3ccc(-c4nc(C(F)(F)F)cn4C(C)C)cc3)c2n1 (centres unmarked) [Example 67, (2-(4-cyclopropyl-6-methoxypyrimid in-5-yl)-7-(4-(1-isopropyl-4-(trifluoromethyl)-1H-imidazol-2-yl)benzyl)-7H-pyrrolo[2,3-d]pyrimidin-6-yl) (3-hydroxypiperid in-1-yl)methanone] the ΔTm at 100 µM [1] was > 5 °C and the GI50 [2] was < 100 nM.
